Data on 17 compounds can be found in PubChem BioAssay (NCI).

Test systems include K-562 leukemia; OVCAR-8 ovarian; HS 578T breast; ACHN renal; KM12 colon; SNB-75 CNS; DU-145 prostate; M14 melanoma; SK-OV-3 ovarian.
What all share (test): growth of human tumour cells (NCI), 48 h

Each structure is given as a SMILES string.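 Grown in 96-well plates, cells were treated for 48 hours with each compound at five concentrations. Insufficient inhibition: endpoint recorded as highest concentration tested. TGI denotes the concentration required for complete inhibition of growth.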

Consider `O=c1[nH]nc(Cc2ccccc2)n1Nc1ccccc1`, for which the TGI in the test with K-562 leukemia, in the test with OVCAR-8 ovarian, in the test with HS 578T breast, in the test on ACHN renal, with KM12 colon and with SNB-75 CNS was over 100 µM throughout. In the test on DU-145 prostate, the TGI was over 100 µM.
Regarding `COc1ccccc1N1CCN(Cn2c(=O)oc3cccnc32)CC1`, the TGI with K-562 leukemia, with M14 melanoma, with OVCAR-8 ovarian, with HS 578T breast, in the test on ACHN renal and in the test on SNB-75 CNS was over 100 µM throughout. Moreover, the TGI with SK-OV-3 ovarian and in the test with DU-145 prostate was over 100 µM throughout.
On to `C1=C\CCCCN2C[C@H]3CCCC/C=C\CCCCN4CC[C@@H]([C@H](CCCCCC/1)C4)[C@H](C3)C2`, for which the TGI in the test on OVCAR-8 ovarian was determined as 7.74 µM; in the test on HS 578T breast, 4.34 µM; with ACHN renal it was 4.06 µM; in the test with KM12 colon, 4.03 µM; in the test on SNB-75 CNS, 5.46 µM; with SK-OV-3 ovarian it was 22.8 µM. Further, in the test with DU-145 prostate, the TGI came to 17.2 µM.
For the compound `c1cc2c(c(-c3c4ccccc4nc4ccccc34)c1)CC1(CC2)OCCO1`, the TGI in the test on K-562 leukemia, with M14 melanoma, in the test on OVCAR-8 ovarian, with ACHN renal, with KM12 colon and in the test on SNB-75 CNS was over 100 µM in each case. In the test with SK-OV-3 ovarian, this compound came in with a TGI of over 100 µM.
For `CCOC(=O)C(NC(=O)Nc1ccc(Cl)c(Cl)c1)C(F)(F)F` (configuration not stated), the TGI in the test with K-562 leukemia, in the test with M14 melanoma, in the test with OVCAR-8 ovarian, with HS 578T breast, with ACHN renal and with SNB-75 CNS was over 100 µM each time. This compound returned a TGI in the test with SK-OV-3 ovarian of over 100 µM.
`N#Cc1ccc(OCc2nc3cc(C(F)(F)F)ccc3nc2-c2ccccc2)cc1`: the TGI with M14 melanoma, in the test on OVCAR-8 ovarian, with HS 578T breast, in the test with ACHN renal, in the test with KM12 colon and in the test on SNB-75 CNS was over 100 µM each time. For the same compound, in the test with DU-145 prostate, the TGI is over 100 µM.
Turning to `CCOc1cc(NC(C)=O)ccc1C(=O)NN1C(=O)/C(=C/c2cc(OC)c(OC)c(OC)c2)N=C1c1ccccc1`, the TGI is over 100 µM in the test with K-562 leukemia; over 100 µM in the test with M14 melanoma; over 100 µM with OVCAR-8 ovarian; over 100 µM in the test on HS 578T breast; over 100 µM in the test on ACHN renal; 98.2 µM in the test with KM12 colon. In the test with SK-OV-3 ovarian, the TGI was over 100 µM.
For the compound `C=CC[C@H](C)CCC(=O)N1[C@H]2CC3CC[C@@]2(CS1(=O)=O)C3(C)C`, the TGI in the test on M14 melanoma, in the test with OVCAR-8 ovarian, with HS 578T breast, in the test on ACHN renal, in the test on KM12 colon and in the test with SK-OV-3 ovarian was over 100 µM each time. For the same compound, the TGI in the test on DU-145 prostate was over 100 µM.
Regarding `COc1ccc(CC2NC(=O)/C=C/CC(C(C)C3OC3c3ccccc3)OC(=O)C(CC(C)C)OC(=O)C(C)CNC2=O)cc1Cl` (configuration not stated), the TGI was over 0.0416 µM with K-562 leukemia; 0.00141 µM with M14 melanoma; over 0.1 µM in the test on OVCAR-8 ovarian; over 0.1 µM with ACHN renal; over 0.1 µM in the test on KM12 colon; over 0.1 µM in the test on SNB-75 CNS. Besides, the TGI in the test with SK-OV-3 ovarian and with DU-145 prostate was over 0.1 µM throughout.
For the compound `C[Si](C)(OCCS(=O)(=O)O)C1S(=O)(=O)OCCOS1(=O)=O`, the TGI was over 100 µM in the test with K-562 leukemia; over 100 µM with M14 melanoma; over 100 µM in the test with OVCAR-8 ovarian; over 100 µM with ACHN renal; over 100 µM in the test on KM12 colon; 59.9 µM in the test on SNB-75 CNS. The TGI in the test on SK-OV-3 ovarian and in the test with DU-145 prostate was over 100 µM each time.
As for `CSC1=C(c2ccc(Cl)cc2)SC(N2CCCCC2)N1c1ccc([N+](=O)[O-])cc1` (configuration not stated), the TGI in the test on K-562 leukemia was over 100 µM; in the test on M14 melanoma, over 100 µM; in the test with OVCAR-8 ovarian it was 93.7 µM; in the test on HS 578T breast, over 100 µM; with ACHN renal, over 100 µM; in the test on KM12 colon it was over 100 µM. The TGI was determined as 96.2 µM in the test with SNB-75 CNS and 81.9 µM with SK-OV-3 ovarian.
Consider `COCCOCCOC1=C(Cl)C(=O)c2c(O)ccc(O)c2C1=O`, for which the TGI was determined as 3.29 µM with M14 melanoma; 5.99 µM with OVCAR-8 ovarian; 7.9 µM in the test on HS 578T breast; 3.5 µM in the test on ACHN renal; 31.9 µM in the test on KM12 colon; 31.5 µM with SNB-75 CNS. The TGI was found to be 33.3 µM in the test with SK-OV-3 ovarian and 22.4 µM in the test on DU-145 prostate.
In the case of `CC(=O)OCC1=C(C)C(OC(=O)C(OC(C)=O)[C@@H](NC(=O)c2ccccc2)c2ccccc2)CCC1(C)C` (some centres not stated), the TGI with K-562 leukemia, in the test with OVCAR-8 ovarian, in the test with ACHN renal, in the test on KM12 colon, in the test on SNB-75 CNS and in the test with SK-OV-3 ovarian was over 100 µM in each case. The compound also returned a TGI in the test on DU-145 prostate of over 100 µM.
Take `CCC(=O)O[C@H]1CC[C@H]2[C@@H]3CCC4=C/C(=N/NC(=O)c5cccc6c(=O)c7ccccc7[nH]c56)CC[C@]4(C)[C@H]3CC[C@]12C`: the TGI in the test with K-562 leukemia, in the test on M14 melanoma, in the test with OVCAR-8 ovarian, with HS 578T breast, in the test with ACHN renal and in the test on KM12 colon was over 25 µM in each case. Further, the TGI with SNB-75 CNS and with SK-OV-3 ovarian was over 25 µM in each case.
With `COC(=O)CCC12CCC(O1)c1ccccc12` (configuration not stated), the TGI in the test on K-562 leukemia, with M14 melanoma, with OVCAR-8 ovarian, with ACHN renal, in the test on KM12 colon and in the test with SNB-75 CNS was over 100 µM throughout. For the same compound, the TGI in the test on SK-OV-3 ovarian and in the test on DU-145 prostate was over 100 µM throughout.
On to `CC1C[C@]2(C)C(=O)N(c3ccccc3)C(=N)[C@@H]2N(C)c2ccccc21` (some centres not stated), for which the TGI in the test on K-562 leukemia, in the test with M14 melanoma, in the test with OVCAR-8 ovarian, with HS 578T breast, in the test on ACHN renal and with KM12 colon was over 100 µM throughout. Moreover, the TGI with SNB-75 CNS and in the test on DU-145 prostate was over 100 µM each time.
As to `COc1cc2c(c(OC)c1OC)-c1ccc(SC)cc1[C@H](OC(=O)c1ccccc1)CC2`, the TGI in the test with K-562 leukemia, in the test with OVCAR-8 ovarian, in the test on ACHN renal, in the test on KM12 colon, with SNB-75 CNS and in the test on SK-OV-3 ovarian was over 100 µM throughout. Further, in the test on DU-145 prostate, the TGI is over 61 µM.
